Test system in one series: not given
Experiment: not given
The conditions noted are these: treatment of AIDS; Hirsch, M. S. (1988); cited from earlier work.
Turning to `Cc1cn([C@H]2C[C@H](N=[N+]=[N-])[C@@H](CO)O2)c(=O)[nH]c1=O` [AZT, 3'-azido-3'-deoxythymidine], the “therapeutic range (in words)” value is on record as “very narrow therapeutic range”.

Another series has as its target T1, purified RT from HIV-1 (Human immunodeficiency virus type 1 group M subtype B, UniProt P04585).
T1 construct: purified RT from HIV-1; made in house; host or cells: E. coli
Nature of the series: Inhibition of Reverse Transcriptase (3H-thymidine-5'-triphosphate incorporation, 18mer oligonucleotide primer). The format is biochemical. As to conditions: concentration causing 50% inhibition of the RT activity; HIV-1 RT expressed in E. coli. How it is done:
The screening test system comprises the purified RT from HIV-1 which was expressed by genetic engineering methods in E. coli as well as the components of the initiation complex and site complementary 18mer oligonucleotide as the primer. The ^3 H!-thymidine-5'-triphosphate incorporation was measured by counting in a β counter. The IC50 value is given in the following table for the investigated compounds. This value corresponds to that concentration of the test substance which causes a 50% inhibition of the RT activity.
The IC50 is the midpoint of a concentration-inhibition curve. Turning to `O=C1c2cccnc2C2(c3ccccc3)SCCN12` (stereo not drawn) [Example 2, 3a-Phenyl-2,3a-Dihydro-1H-3-Thia-4,8a-Diaza-Cyclopenta a!Inden-8-One], half-maximal inhibition (IC50) required 3.3 µM.

`Cc1cc(C)cc(C23SCCN2C(=O)c2nccnc23)c1` (stereo not drawn) [Example 5, 3a-(3,5-Dimethyl-Phenyl)-2,3a-Dihydro-1H-3-Thia-4,7,8a-Triaza-Cyclopenta a! Inden-8-One] registered an IC50 of 40 µM.

With `O=C1c2ccncc2C2(c3ccccc3)SCCN12` (stereo not drawn) [Example 7, 3a-Phenyl-2,3a-Dihydro-1H-3-Thia-5,8a-Diaza-Cyclopenta a!Inden-8-One], the IC50 worked out at 17 µM.

Regarding `Cc1ccnc(C23SCCN2C(=O)c2cccnc23)c1` (stereo not drawn) [Example 8, 3a-(4-Methyl-Pyridin-2-Yl)-2,3a-Dihydro-1H-3-Thia-4,8a-Diaza-Cyclopenta a!I nden-8-One], inhibition was half-maximal at 4.6 µM (IC50).

The molecule `O=C1c2cccnc2C2(c3ccccn3)SCCN12` (stereo not drawn) [Example 9, 3a-Pyridin-2-Yl-2,3a-Dihydro-1H-3-Thia-4,8a-Diaza-Cyclopenta a!Inden-8-One] gave a half-maximal inhibitory concentration (IC50) of 23 µM.

Take `Cc1cccc(C23SCCN2C(=O)c2cccnc23)n1` (stereo not drawn) [Example 10, 3a-(6-Methyl-Pyridin-2-Yl)-2,3a-Dihydro-1H-3-Thia-4,8a-Diaza-Cyclopenta a!I nden-8-One]: the IC50 stood at 6.6 µM.

`Cc1cc(C)nc(C23SCCN2C(=O)c2cccnc23)c1` (stereo not drawn) [Example 11, 3a-(4,6-Dimethyl-Pyridin-2-Yl)2,3a-Dihydro-1H-3-Thia-4,8a-Diaza-Cyclopenta a!Inden-8-One] showed an IC50 of 3.9 µM.

As for `Cc1cccc(C23SCCN2C(=O)c2cccnc23)c1` (stereo not drawn) [Example 13, 3a-m-Tolyl-2,3a-Dihydro-1H-3-Thia-4,8a-Diaza-Cyclopenta a!Inden-8-One], the midpoint of inhibition, the IC50, lay at 4 µM.

(Values after patent publication US5512564A, “Tricyclic thiazole and oxazole derivatives and pharmaceutical agents containing them” (priority 1991, dated 1996).)
